What follows are compounds tested on 5-HT3 receptors (assay: Antagonism of 5-HT at 5-HT3 receptors: inhibition of 5-HT-induced bradycardia (von Benzold Jarisch Reflex) in anesthesized rats). Conditions: 100 μg/kg, i.v. (intrajugular); 5-HT 30 μg/kg given 5 min. later; urethane-anesthesized rats; tested as hydrochloride except Example 9.
Type: in vivo, rat
Protocol: The compounds prepared in the above examples were respectively tested for antagonism of 5-HT at 5-HT3 receptors.
Administration of 5-HT (serotonin) to anesthesized rats via jugular vein induces temporary bradycardia (von Benzold Jarisch Reflex)(A.S. Paintal, Physiol. Rev., 53, 159-227 (1973)).
Thus, rats were anesthesized with urethane (1 g/kg, i.p.) and recorded for blood pressure and heart rate from left femoral artery. Percent inhibition was calculated from bradycardia induced by 5-HT (30 μg/kg) given 5 min. following intrajugular administration of a compound of the invention, taking the bradycardia induced by the intrajugular administration of 5-HT.
In this test, all of the test compounds were tested in the form of hydrochloride except for the compounds prepared in Example 9. Therefore, concentration of the test drug is expressed in terms of the concentration of the hydrochloride except for the compounds prepared in Example 9.

SMILES | % Inhibition (of bradycardia induced by 5-HT) [%]
CN1CCCCC1COC(=O)c1nn(C)c2ccccc12 (stereo not shown) [Example 2, 1-Methyl-2-piperidylmethyl 1-methylindazole-3-carboxylate] | 34
COc1cc(N)c(Cl)cc1C(=O)OC(C)C1CCCCN1C (single isomer, unassigned) [7 (less polar isomer), (1-Methyl-Z-piperidyl)ethyl 2-methoxy-4 amino-5-chlorobenzoate] | 50
COc1cc(N)c(Cl)cc1C(=O)OCC1CCCCN1C (stereo not shown) [Example 6, 1-Methyl-2-piperidylmethyl 2-methoxy-4-amino-5-chlorobenzoate] | 76
Cn1nc(C(=O)OCC2CCCC[N+]2(C)C)c2ccccc21 (stereo not shown) [Example 9, 1,1-Dimethyl-2-(1-methyl-3-indazolylcarboxymethyl)-piperidinium iodide] | 58
COc1ccc2ncc(C(=O)OCC3CCCCN3C)cc2c1 (stereo not shown) [Example 3] | 26
CC(OC(=O)c1nn(C)c2ccccc12)C1CCCCN1C (single isomer, unassigned) [1 (less polar isomer), 1-(1-Methyl-2-piperidyl)ethyl 1-methylindazole-3-carboxylate] | 49
COc1cc(N)ccc1C(=O)OC(C)C1CCCCN1C (single isomer, unassigned) [5 (more polar isomer), 1-(1-Methyl-2-piperidyl)ethyl 2-methoxy-4-aminobenzoate] | 16
